Assay: Acid stability (acid-mediated hydrolytic decomposition, simulated stomach conditions)
Assay type: physicochemical
Settings: pH 1, 25° C.; for Compound left (%): 0.3 mg/mL in dilute hydrochloric acid, HPLC
Description: Compounds were tested for their stability towards acid-mediated hydrolytic decomposition employing a test designed to simulate stomach conditions. Each compound was incubated at an initial concentration of 0.3 mg/mL in dilute hydrochloric acid at pH 1 for 24 hours at 25° C. HPLC was run immediately for t=0 and at intervals up to approximately 24 hours. The results for compounds of Example 2, part b, Example 9, and for comparative phosphoramidates of 2′,3′-dideoxy-adenosine (Compound 1093) and 2′,3′-didehydro-2′,3′-dideoxy-adenosine (Compound 1001), described in PCT/GB96/00580, are given in the table below.

COC(=O)C(C)(C)NP(=O)(OC[C@@H]1C=C[C@H](n2cnc3c(NCC4CC4)nc(N)nc32)C1)Oc1ccccc1 (relative stereo) [Example 9]
Compound left (%) (Time 0 hr): 100%
Compound left (%) (Time 13 hr): 96%
Compound left (%) (Time 24 hr): 94%
Acid stability in words (after 24 hours, dilute hydrochloric acid): remained intact
